From publication PMC12677652, “Procyanidin B3 and Its Derivatives Alleviate Neuronal Injury by Targeting G3BP1 for Ischemic Stroke Therapy” (Advanced Science, 2025)
Where two headings read alike, the source gives them in different places.

What was measured:
SG in HT22 cells = test: Immunofluorescence staining of G3BP1 to detect SG level in HT22 cells under OGD/R; format: cell-based; details: for SG levels: after 6 h of OGD, 24 h treatment; for ratio of SG‐positive cells: 100 µM
Experimental: Immunofluorescence analysis of the stress granule (SG) core component G3BP1 was utilized to investigate the SG formation in HT22 cells and the cortex. HT22 cells were treated with 4% paraformaldehyde for 15 min. Then the fixed brain tissue slices and HT22 cells were permeabilized for 5 min using 1% Triton X‐100 (Sigma‐Aldrich, USA) dissolved in PBS and blocked with a PBS solution containing 10% goat serum for 1 h, followed by incubation with anti‐G3BP1 antibody (catalog no. 66486‐1‐Ig, Proteintech, China) at 4 °C overnight. After being washed with PBS 3 times for 5 min each, samples were incubated with secondary antibody (Alexa Fluor 568 Goat anti‐mouse IgG, Invitrogen, USA) in the dark for 2 h at room temperature. The nucleus was stained with DAPI. Fluorescent pictures were obtained with a fluorescence microscope (Carl Zeiss, Germany).

[1] = Brain and plasma concentrations after MCAO/reperfusion (BBB assessment); format: in vivo, mice; details: C57BL/6, mouse, ip, 0.5 h after administration, 48 mg kg^−1 i.p., after 1.5 h of MCAO followed by reperfusion; for Kp at 0.5 h: brain / plasma, read-out: CBrain/Cplasma
Experimental: After 1.5 h of MCAO followed by reperfusion, each of 1 and 6c was administered at a dose of 48 mg kg^−1 intraperitoneally to mice, and the brain and plasma concentrations of each compound were measured at 0.5 h after administration. The ratios of brain to plasma concentrations of 1 and 6c were 0.37 and 0.57, respectively, confirming that the BBB permeability of compounds benefited from higher lipophilicity (Table 2 ). The decrease in 6c concentration in vivo may be due to changes in metabolic routes. Tertiary carbon atoms and terminal carbon atoms are easily metabolized through oxidative pathways,^[ [55] ^] so the introduction of isopropyl groups leads to the production of more metabolites, resulting in a decrease in the area under curve (AUC). The metabolites of oligomeric proanthocyanidins and their analogues are quite complex. Although there are a large number of metabolites, most of them have a flavan‐3‐ol core structure and contain many phenolic hydroxyl groups.^[ [56] ^] As mentioned above, phenolic hydroxyl groups are important active functional groups to exert neuroprotective effects, so it can be inferred that metabolites of 6c also have similar activity to 6c. In future work, radiolabeled pharmacokinetic studies and metabolite studies are needed to further elucidate the metabolism of the preferred compound.^[ [57] ^] Pharmacokinetic analyses were performed using a LC‐40D XS HPLC system (Shimadzu, Japan) coupled with a Sciex Triple Quad 5500 mass spectrometer (AB SCIEX, USA). Tested compounds PB3 and 6c were administered by i.p. injection (48 mg kg^−1, formulation solvent: normal saline). Blood samples were drawn from the retro‐orbital vein at 0.083, 0.25, 0.5, 1, 2, 4, 8, and 24 h post‐injection with EDTA dipotassium salt as an anticoagulant. Subsequently, the plasma fractions were collected in Eppendorf tubes and centrifuged at 4000 g for 5 min at 4 °C and stored at −80 °C for analysis. Brain tissue was mixed with four‐fold normal saline for homogenization (10 s per time with a 10 s interval for 3–5 times). Then, the mixture was centrifuged at 4000 g for 5 min at 4 °C, and the supernatant was stored at −80 °C for analysis. For sample preparation, the desired serial concentrations of working solutions were achieved by diluting a stock solution of analyte with 50% methanol in water solution. 2 µL of working solutions were added to 10 µL of the blank C57BL/6 mouse plasma/brain homogenate to achieve calibration standards of 10–10 000 ng mL^−1 (10, 20, 100, 200, 1000, 2000, 4000, 10 000 ng mL^−1) in a total volume of 12 µL. Three quality control samples at 20 ng mL^−1, 1600 ng mL^−1, and 8000 ng mL^−1 for plasma were prepared independently of those used for the calibration curves. These QC samples were prepared on the day of analysis in the same way as calibration standards.

[2] = tested on: HT22 cells under OGD/R injury; test: Apoptosis level of HT22 cells under OGD/R (TUNEL staining and immunoblotting); format: cell-based
Experimental: HT22 cells were washed with phosphate buffered saline (PBS), then DMEM sugar‐free medium (Gibco, USA) was added and placed in the anaerobic incubator of 5% CO2, 1% O2, and 37 °C for 6 h. PB3 or other compounds were previously dissolved in DMEM/F‐12 with 10% FBS and 1% penicillin/streptomycin. After undergoing OGD for 6 h, the medium was replaced by DMEM/F‐12 with 10% FBS and 1% penicillin/streptomycin containing PB3 or other compounds and kept in a humidified 5% CO2, 37 °C incubator for 24 h.
Apoptosis level was evaluated by TUNEL staining and flow cytometry. For TUNEL staining, HT22 cells were treated with 4% paraformaldehyde for 15 min. Then the fixed brain tissue slices and HT22 cells were permeabilized for 5 min using 1% Triton X‐100 (Sigma‐Aldrich, USA) dissolved in PBS. TUNEL staining was executed by following the instructions, using a one‐step TUNEL apoptosis assay kit (Meilunbio, China). Red fluorescence was utilized to identify apoptotic cells, while 4′, 6‐diamidino‐2‐phenylindole (DAPI) was used to counterstain the nuclei. The fluorescence microscope (Carl Zeiss, Germany) was used to obtain images. For flow cytometry, apoptotic cells were determined with the Annexin V‐Alexa Fluor 488/PI apoptosis detection kit (Yeasen, China) by following the instructions. EDTA‐free trypsin (Gibco, USA) was added to HT22 cells (2.5 × 10^5 cells). The cells were collected and washed with pre‐cooling PBS 2 times, then suspended in 250 µL 1× binding buffer. 100 µL cell suspension was dyed with 5 µL Annexin V‐Alexa Fluor 488 and 10 µL PI and plunged into darkness at room temperature for 15 min. Then the cell suspension was mixed with 400 µL of 1× binding buffer. Cell apoptosis was immediately determined by Cytek Aurora (Cytek Biosciences, USA).
Cells and tissues were homogenized in RIPA buffer (Beyotime, China) containing protease inhibitors (Biovision, USA) on ice for 30 min. After centrifugation (13000 r min^−1, 4 °C) for 10 min, the resulting supernatant was collected. The protein concentrations were determined by a BCA protein assay kit (Thermo Scientific, USA). After separating a 10% sodium dodecyl sulfate (SDS)‐polyacrylamide gel, protein on the gel was then transferred onto nitrocellulose membranes (Merck, USA), which were blocked with 5% bovine serum albumin for 1 h to prevent non‐specific binding. Then, the anti‐caspase 3 antibody (catalog no. 9662, Cell Signaling Technology, USA), anti‐Bcl‐2 antibody (catalog no. GTX100064, GeneTex, USA), anti‐G3BP1 antibody (catalog no. 66486‐1‐Ig, Proteintech, China), anti‐β‐tubulin antibody (catalog no. 66240‐1‐Ig, Proteintech, China), and anti‐β‐actin antibody (catalog no. 66009‐1‐Ig, Proteintech, China) were used for treating the membrane overnight at 4 °C. Bound antibodies were detected with the species‐appropriate horseradish peroxidase‐labeled secondary antibody (Jackson ImmunoResearch, USA) using ECL reagents (ShareBio, China). Protein‐specific signals were detected using a Bio‐Rad Imager (Bio‐Rad, USA), and the bands were quantified by densitometric analysis software (ImageJ). β‐tubulin or β‐actin was used as a loading control.

[3] = 50 µM, compared with the model group
[4] = 50 and 100 µM, compared with the model group

| Kp at 0.5 h [1] | concentration at 0.5 h ([1]; brain, read-out: CBrain) [ng/g] | concentration at 0.5 h ([1]; plasma, read-out: Cplasma) [ng/mL] | SMILES | SG levels (SG in HT22 cells) | expression of Bcl‐2 [2, 3] | expression of cleaved caspase‐3 [2, 3] | rate of TUNEL‐positive cells [2, 3] | ratio of SG‐positive cells (SG in HT22 cells; 1 h after administration) | ratio of SG‐positive cells (SG in HT22 cells; after 24 h of reoxygenation) | expression of Bcl‐2 [2, 4] | expression of cleaved caspase‐3 [2, 4] | rate of TUNEL‐positive cells ([2]; HT22, OGD/R, different concentrations) |
| --- | --- | --- | --- | --- | --- | --- | --- | --- | --- | --- | --- | --- |
| 0.57 | 2810 ± 489 | 4960 ± 1590 | CC(C)c1c(O)cc(O)c2c1O[C@H](c1ccc(O)c(O)c1)[C@@H](O)[C@@H]2c1c(O)cc(O)c2c1O[C@H](c1ccc(O)c(O)c1)[C@@H](O)C2 [Compound 6c, 8‐Isopropyl‐(+)‐Catechin‐(4α,8)‐(+)‐Catechin] | mediate SG upregulation | increase the expression of Bcl‐2 | decrease the expression of cleaved caspase‐3 | reduce the rate of TUNEL‐positive cells |  |  |  |  |  |
| 0.37 | 4790 ± 1610 | 13000 ± 757 | Oc1cc(O)c2c(c1)O[C@H](c1ccc(O)c(O)c1)[C@@H](O)[C@@H]2c1c(O)cc(O)c2c1O[C@H](c1ccc(O)c(O)c1)[C@@H](O)C2 [Compound 1, procyanidin B3] | enhance SG levels in a dose‐dependent manner |  |  |  | did not change significantly | significantly increased | significantly increased | significantly decreased | dose‐dependently reduced |
